Source: patent US20260356819A1, “OXOISOINDOLINYL-SUBSTITUTED […] DERIVATIVE AND USE THEREOF” (GLUETACS THERAPEUTICS (SHANGHAI) CO., LTD., priority 2023, published 2026)

What was measured:
Format in all cases: cell-based
Conditions in all cases: compounds at 50 nM and 500 nM
[1] = biological target: T1, IKZF2 (Homo sapiens, UniProt Q96SW2+Q9UKS7); test: Western blot degradation of IKZF2 in hPBMCs (24 h)
T1 construct: The supernatant was aspirated as the extracted total cell protein; endogenous in cells; host or cells: human peripheral blood mononuclear cells (hPBMCs)
In short: (§1)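 Degradation in primary human PBMCs after 24 h compound exposure at 50 and 500 nM. Western blot band intensities, normalised to an internal control protein, expressed as % protein remaining relative to DMSO.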

[2] = biological target: T2, IKZF1 (Homo sapiens, UniProt Q13422+Q96SW2); test: Western blot degradation of IKZF1 in hPBMCs (24 h)
T2 construct: The supernatant was aspirated as the extracted total cell protein; endogenous in cells; host or cells: human peripheral blood mononuclear cells (hPBMCs)
T2 sequence (Q13422 whole entry): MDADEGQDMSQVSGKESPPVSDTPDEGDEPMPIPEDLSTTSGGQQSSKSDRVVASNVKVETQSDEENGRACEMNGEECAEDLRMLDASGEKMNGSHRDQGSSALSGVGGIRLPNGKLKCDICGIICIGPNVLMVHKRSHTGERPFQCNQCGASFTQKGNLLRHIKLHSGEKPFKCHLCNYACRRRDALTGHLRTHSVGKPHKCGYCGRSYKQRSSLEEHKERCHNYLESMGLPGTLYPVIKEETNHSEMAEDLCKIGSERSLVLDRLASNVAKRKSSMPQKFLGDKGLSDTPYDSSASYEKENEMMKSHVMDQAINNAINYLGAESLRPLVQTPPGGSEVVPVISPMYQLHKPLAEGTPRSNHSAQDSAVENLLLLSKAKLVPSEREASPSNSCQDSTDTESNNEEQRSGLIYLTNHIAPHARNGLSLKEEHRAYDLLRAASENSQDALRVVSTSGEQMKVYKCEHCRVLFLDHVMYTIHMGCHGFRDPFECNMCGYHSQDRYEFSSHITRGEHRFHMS
T2 sequence (Q96SW2 whole entry): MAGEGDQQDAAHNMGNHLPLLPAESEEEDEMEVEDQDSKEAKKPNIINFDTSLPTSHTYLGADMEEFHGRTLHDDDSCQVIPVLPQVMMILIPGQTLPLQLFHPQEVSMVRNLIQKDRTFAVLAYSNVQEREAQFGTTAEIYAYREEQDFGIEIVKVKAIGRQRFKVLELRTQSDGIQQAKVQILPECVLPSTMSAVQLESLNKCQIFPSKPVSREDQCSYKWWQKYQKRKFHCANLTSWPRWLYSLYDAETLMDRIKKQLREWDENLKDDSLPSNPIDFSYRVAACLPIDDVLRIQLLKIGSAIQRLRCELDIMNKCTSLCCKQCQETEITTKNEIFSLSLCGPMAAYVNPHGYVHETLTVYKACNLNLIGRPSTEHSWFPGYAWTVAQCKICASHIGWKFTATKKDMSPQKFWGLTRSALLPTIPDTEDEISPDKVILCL
T2 sequence (Q16531 whole entry partner): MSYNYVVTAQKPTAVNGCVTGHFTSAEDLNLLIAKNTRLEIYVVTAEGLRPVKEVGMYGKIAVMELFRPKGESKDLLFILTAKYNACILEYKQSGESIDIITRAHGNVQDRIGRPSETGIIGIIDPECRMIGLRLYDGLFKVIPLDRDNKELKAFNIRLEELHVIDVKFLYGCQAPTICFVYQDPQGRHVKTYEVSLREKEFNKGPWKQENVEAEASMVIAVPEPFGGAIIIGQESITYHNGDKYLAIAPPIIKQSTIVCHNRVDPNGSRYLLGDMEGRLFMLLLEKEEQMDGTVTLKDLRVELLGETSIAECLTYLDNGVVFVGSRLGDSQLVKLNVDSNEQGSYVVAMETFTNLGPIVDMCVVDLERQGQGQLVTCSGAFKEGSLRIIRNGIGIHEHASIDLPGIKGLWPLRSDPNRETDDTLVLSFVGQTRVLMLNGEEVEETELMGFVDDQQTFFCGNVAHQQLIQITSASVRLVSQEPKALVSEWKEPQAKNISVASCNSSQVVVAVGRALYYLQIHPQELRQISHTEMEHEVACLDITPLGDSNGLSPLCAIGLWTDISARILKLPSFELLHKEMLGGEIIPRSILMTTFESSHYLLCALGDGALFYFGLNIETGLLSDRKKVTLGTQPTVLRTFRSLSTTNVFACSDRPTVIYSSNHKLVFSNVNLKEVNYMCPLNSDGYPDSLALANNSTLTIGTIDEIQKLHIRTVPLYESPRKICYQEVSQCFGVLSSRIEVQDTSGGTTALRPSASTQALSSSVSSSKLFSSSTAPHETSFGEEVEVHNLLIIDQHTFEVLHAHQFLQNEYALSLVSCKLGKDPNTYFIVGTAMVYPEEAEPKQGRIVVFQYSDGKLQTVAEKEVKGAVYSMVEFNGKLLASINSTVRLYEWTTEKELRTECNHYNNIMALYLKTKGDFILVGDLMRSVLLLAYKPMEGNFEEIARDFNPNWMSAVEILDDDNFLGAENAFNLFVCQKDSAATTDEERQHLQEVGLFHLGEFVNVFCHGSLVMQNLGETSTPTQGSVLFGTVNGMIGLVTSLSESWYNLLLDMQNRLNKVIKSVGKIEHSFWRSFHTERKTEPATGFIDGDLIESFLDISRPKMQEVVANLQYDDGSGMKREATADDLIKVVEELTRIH
In short: as §1

[3] = biological target: T3, WEE1 (Homo sapiens, UniProt P30291+Q96SW2); test: Western blot degradation of WEE1 in hPBMCs (24 h)
T3 construct: The supernatant was aspirated as the extracted total cell protein; endogenous in cells; host or cells: human peripheral blood mononuclear cells (hPBMCs)
T3 sequence (P30291 whole entry): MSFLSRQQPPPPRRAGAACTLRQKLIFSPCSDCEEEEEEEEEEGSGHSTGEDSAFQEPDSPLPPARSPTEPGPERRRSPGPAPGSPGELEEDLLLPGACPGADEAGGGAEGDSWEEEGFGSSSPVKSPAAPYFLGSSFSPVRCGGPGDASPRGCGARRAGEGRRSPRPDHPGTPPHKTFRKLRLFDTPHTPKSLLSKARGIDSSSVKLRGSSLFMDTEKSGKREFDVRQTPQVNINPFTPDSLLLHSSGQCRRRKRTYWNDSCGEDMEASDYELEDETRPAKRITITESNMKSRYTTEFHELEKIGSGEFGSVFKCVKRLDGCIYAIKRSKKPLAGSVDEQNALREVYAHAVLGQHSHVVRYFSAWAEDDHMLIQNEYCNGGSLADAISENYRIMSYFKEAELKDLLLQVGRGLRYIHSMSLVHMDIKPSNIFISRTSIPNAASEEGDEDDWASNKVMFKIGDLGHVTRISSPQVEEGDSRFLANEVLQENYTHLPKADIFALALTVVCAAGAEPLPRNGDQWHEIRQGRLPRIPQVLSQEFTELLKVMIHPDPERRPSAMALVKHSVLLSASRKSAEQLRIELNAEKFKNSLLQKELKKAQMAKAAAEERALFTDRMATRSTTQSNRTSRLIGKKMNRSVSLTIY
T3 sequence (Q96SW2 whole entry): as the sequence (Q96SW2 whole entry) above
T3 sequence (Q16531 whole entry partner): as the sequence (Q16531 whole entry partner) above
In short: as §1

[4] = biological target: T4, CK1α (Homo sapiens, UniProt P48729+Q96SW2); test: Western blot degradation of CK1α in hPBMCs (24 h)
T4 construct: The supernatant was aspirated as the extracted total cell protein; endogenous in cells; host or cells: human peripheral blood mononuclear cells (hPBMCs)
T4 sequence (P48729 whole entry): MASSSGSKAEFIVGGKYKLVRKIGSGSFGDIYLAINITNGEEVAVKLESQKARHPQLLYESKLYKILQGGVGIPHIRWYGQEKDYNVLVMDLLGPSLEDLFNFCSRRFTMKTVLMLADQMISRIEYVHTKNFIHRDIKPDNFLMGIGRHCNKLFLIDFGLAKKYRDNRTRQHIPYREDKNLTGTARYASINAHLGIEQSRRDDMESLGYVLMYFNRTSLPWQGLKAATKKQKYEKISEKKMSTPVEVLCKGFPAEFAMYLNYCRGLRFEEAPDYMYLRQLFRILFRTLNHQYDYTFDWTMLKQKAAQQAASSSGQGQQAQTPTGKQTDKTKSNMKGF
T4 sequence (Q96SW2 whole entry): as the sequence (Q96SW2 whole entry) above
T4 sequence (Q16531 whole entry partner): as the sequence (Q16531 whole entry partner) above
In short: as §1

[5] = biological target: T5, GSPT1 (Homo sapiens, UniProt P15170+Q96SW2); test: Western blot degradation of GSPT1 in hPBMCs (24 h)
T5 construct: The supernatant was aspirated as the extracted total cell protein; endogenous in cells; host or cells: human peripheral blood mononuclear cells (hPBMCs)
T5 sequence (P15170 whole entry): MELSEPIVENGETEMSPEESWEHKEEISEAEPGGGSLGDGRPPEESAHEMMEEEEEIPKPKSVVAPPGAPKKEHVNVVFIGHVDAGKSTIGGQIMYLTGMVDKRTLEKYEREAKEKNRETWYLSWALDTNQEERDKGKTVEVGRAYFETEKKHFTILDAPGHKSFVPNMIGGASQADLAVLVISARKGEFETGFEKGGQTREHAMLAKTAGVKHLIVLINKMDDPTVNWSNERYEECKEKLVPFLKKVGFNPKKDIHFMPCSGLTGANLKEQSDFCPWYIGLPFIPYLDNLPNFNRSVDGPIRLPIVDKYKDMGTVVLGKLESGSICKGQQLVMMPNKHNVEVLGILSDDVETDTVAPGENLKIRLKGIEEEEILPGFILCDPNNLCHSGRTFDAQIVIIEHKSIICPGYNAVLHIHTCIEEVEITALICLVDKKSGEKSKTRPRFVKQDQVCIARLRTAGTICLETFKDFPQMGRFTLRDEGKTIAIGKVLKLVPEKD
T5 sequence (Q96SW2 whole entry): as the sequence (Q96SW2 whole entry) above
T5 sequence (Q16531 whole entry partner): as the sequence (Q16531 whole entry partner) above
In short: as §1

[6] = biological target: T6, IKZF3 (Homo sapiens, UniProt Q96SW2+Q9UKT9); test: Western blot degradation of IKZF3 in hPBMCs (24 h)
T6 construct: The supernatant was aspirated as the extracted total cell protein; endogenous in cells; host or cells: human peripheral blood mononuclear cells (hPBMCs)
T6 sequence (Q9UKT9 whole entry): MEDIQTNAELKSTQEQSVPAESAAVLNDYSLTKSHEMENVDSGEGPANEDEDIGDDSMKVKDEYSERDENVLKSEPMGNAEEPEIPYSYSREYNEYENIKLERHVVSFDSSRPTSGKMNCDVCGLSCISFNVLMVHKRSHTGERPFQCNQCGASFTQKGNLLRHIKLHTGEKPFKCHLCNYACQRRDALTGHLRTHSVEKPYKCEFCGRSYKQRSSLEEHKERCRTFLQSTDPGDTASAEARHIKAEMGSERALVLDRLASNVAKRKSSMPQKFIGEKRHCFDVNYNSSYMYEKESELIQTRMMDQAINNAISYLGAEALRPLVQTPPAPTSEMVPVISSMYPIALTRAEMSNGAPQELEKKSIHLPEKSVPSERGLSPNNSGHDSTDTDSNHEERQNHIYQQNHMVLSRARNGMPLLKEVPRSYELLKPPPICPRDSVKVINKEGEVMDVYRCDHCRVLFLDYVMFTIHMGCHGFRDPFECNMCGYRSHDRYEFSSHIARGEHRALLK
T6 sequence (Q96SW2 whole entry): as the sequence (Q96SW2 whole entry) above
T6 sequence (Q16531 whole entry partner): as the sequence (Q16531 whole entry partner) above
In short: as §1

Row | Structure (SMILES) | IKZF2 substrate protein remaining % [1] | IKZF1 substrate protein remaining % [2] | WEE1 substrate protein remaining % [3] | CK1α substrate protein remaining % [4] | GSPT1 substrate protein remaining % [5] | IKZF3 substrate protein remaining % [6]
1 | O=C1CCN(N2C(=O)c3ccc(CN4CCN(c5ccc(Cl)cc5)CC4)cc3C2=O)C(=O)N1 [GT-06783, 5-((4-(4-chlorophenyl)piperazin-1-yl)methyl)-2-(2,4-dioxotetrahydropyrimidin-1(2H)-yl)isoindoline-1,3-dione] | B (80%< substrate protein remaining % ≤100%) | B (80%< substrate protein remaining % ≤100%) | B (80%< substrate protein remaining % ≤100%) | B (80%< substrate protein remaining % ≤100%) | B (80%< substrate protein remaining % ≤100%) | A (0% ≤ substrate protein remaining % ≤80%)
2 | O=C1CCN(N2C(=O)c3ccc(CN4CCN(c5ccc(Br)cc5)CC4)cc3C2=O)C(=O)N1 [GT-06784, 5-((4-(4-bromophenyl)piperazin-1-yl)methyl)-2-(2,4-dioxotetrahydropyrimidin-1(2H)-yl)isoindoline-1,3-dione] | B (80%< substrate protein remaining % ≤100%) | B (80%< substrate protein remaining % ≤100%) | B (80%< substrate protein remaining % ≤100%) | A (0% ≤ substrate protein remaining % ≤80%) | B (80%< substrate protein remaining % ≤100%) | B (80%< substrate protein remaining % ≤100%)
3 | O=C1CCN(N2C(=O)c3ccc(CN4CCN(c5cccc(F)c5F)CC4)cc3C2=O)C(=O)N1 [GT-06793, 5-((4-(2,3-difluorophenyl)piperazin-1-yl)methyl)-2-(2,4-dioxotetrahydropyrimidin-1(2H)-yl)isoindoline-1,3-dione] | A (0% ≤ substrate protein remaining % ≤80%) | B (80%< substrate protein remaining % ≤100%) | B (80%< substrate protein remaining % ≤100%) | B (80%< substrate protein remaining % ≤100%) | B (80%< substrate protein remaining % ≤100%) | B (80%< substrate protein remaining % ≤100%)
4 | O=C1CCN(N2C(=O)c3ccc(CN4CCN(c5c(F)cccc5F)CC4)cc3C2=O)C(=O)N1 [GT-06796, 5-((4-(2,6-difluorophenyl)piperazin-1-yl)methyl)-2-(2,4-dioxotetrahydropyrimidin-1(2H)-yl)isoindoline-1,3-dione] | B (80%< substrate protein remaining % ≤100%) | B (80%< substrate protein remaining % ≤100%) | A (0% ≤ substrate protein remaining % ≤80%) | B (80%< substrate protein remaining % ≤100%) | B (80%< substrate protein remaining % ≤100%) | B (80%< substrate protein remaining % ≤100%)
5 | O=C1CCN(N2C(=O)c3ccc(CN4CCN(c5ccc(F)c(F)c5)CC4)cc3C2=O)C(=O)N1 [GT-06797, 5-((4-(3,4-difluorophenyl)piperazin-1-yl)methyl)-2-(2,4-dioxotetrahydropyrimidin-1(2H)-yl)isoindoline-1,3-dione] | B (80%< substrate protein remaining % ≤100%) | B (80%< substrate protein remaining % ≤100%) | A (0% ≤ substrate protein remaining % ≤80%) | B (80%< substrate protein remaining % ≤100%) | B (80%< substrate protein remaining % ≤100%) | B (80%< substrate protein remaining % ≤100%)
6 | O=C1CCN(N2C(=O)c3ccc(CN4CCC(c5ccccc5)CC4)cc3C2=O)C(=O)N1 [GT-06803, 2-(2,4-dioxotetrahydropyrimidin-1(2H)-yl)-5-((4-phenylpiperidin-1-yl)methyl)isoindoline-1,3-dione] | B (80%< substrate protein remaining % ≤100%) | B (80%< substrate protein remaining % ≤100%) | B (80%< substrate protein remaining % ≤100%) | A (0% ≤ substrate protein remaining % ≤80%) | B (80%< substrate protein remaining % ≤100%) | B (80%< substrate protein remaining % ≤100%)
7 | O=C1CCN(N2C(=O)c3ccc(CN4CCC(c5cccc(Br)c5)CC4)cc3C2=O)C(=O)N1 [GT-06804, 5-((4-(3-bromophenyl)piperidin-1-yl)methyl)-2-(2,4-dioxotetrahydropyrimidin-1(2H)-yl)isoindoline-1,3-dione] | B (80%< substrate protein remaining % ≤100%) | B (80%< substrate protein remaining % ≤100%) | B (80%< substrate protein remaining % ≤100%) | A (0% ≤ substrate protein remaining % ≤80%) | B (80%< substrate protein remaining % ≤100%) | B (80%< substrate protein remaining % ≤100%)
8 | O=C1CCN(N2C(=O)c3ccc(CN4CCC(c5ccc(Br)cc5)CC4)cc3C2=O)C(=O)N1 [GT-06805, 5-((4-(4-bromophenyl)piperidin-1-yl)methyl)-2-(2,4-dioxotetrahydropyrimidin-1(2H)-yl)isoindoline-1,3-dione] | B (80%< substrate protein remaining % ≤100%) | B (80%< substrate protein remaining % ≤100%) | B (80%< substrate protein remaining % ≤100%) | A (0% ≤ substrate protein remaining % ≤80%) | B (80%< substrate protein remaining % ≤100%) | B (80%< substrate protein remaining % ≤100%)
9 | O=C1CCN(N2C(=O)c3ccc(CN4CCC(c5ccccc5F)CC4)cc3C2=O)C(=O)N1 [GT-06877, 2-(2,4-dioxotetrahydropyrimidin-1(2H)-yl)-5-((4-(2-fluorophenyl)piperidin-1-yl)methyl)isoindoline-1,3-dione] | B (80%< substrate protein remaining % ≤100%) | B (80%< substrate protein remaining % ≤100%) | B (80%< substrate protein remaining % ≤100%) | A (0% ≤ substrate protein remaining % ≤80%) | B (80%< substrate protein remaining % ≤100%) | B (80%< substrate protein remaining % ≤100%)
10 | O=C1CCN(N2C(=O)c3ccc(CN4CCC(c5ccc(F)cc5)CC4)cc3C2=O)C(=O)N1 [GT-06878, 2-(2,4-dioxotetrahydropyrimidin-1(2H)-yl)-5-((4-(4-fluorophenyl)piperidin-1-yl)methyl)isoindoline-1,3-dione] | B (80%< substrate protein remaining % ≤100%) | B (80%< substrate protein remaining % ≤100%) | B (80%< substrate protein remaining % ≤100%) | A (0% ≤ substrate protein remaining % ≤80%) | A (0% ≤ substrate protein remaining % ≤80%) | B (80%< substrate protein remaining % ≤100%)
11 | O=C1CCN(N2C(=O)c3ccc(CN4CCC(c5ccccc5C(F)(F)F)CC4)cc3C2=O)C(=O)N1 [GT-06879, 2-(2,4-dioxotetrahydropyrimidin-1(2H)-yl)-5-((4-(2-(trifluoromethyl)phenyl)piperidin-1-yl)methyl)isoindoline-1,3-dione] | B (80%< substrate protein remaining % ≤100%) | B (80%< substrate protein remaining % ≤100%) | B (80%< substrate protein remaining % ≤100%) | B (80%< substrate protein remaining % ≤100%) | A (0% ≤ substrate protein remaining % ≤80%) | B (80%< substrate protein remaining % ≤100%)
